“And” between values parts separate entries of the source, which are not always exact repeats. Equal values may be shown once. One block for each molecule: values may come before it.
Tests used:
[1] = target: T1, Dvl-3 PDZ (Homo sapiens, UniProt Q92997); test: Binding constant by isothermal titration calorimetry (ITC); conditions: for Kd: by ITC, one-site binding model, 25 °C, read-out: K D Dvl-3 PDZ; for n (stoichiometry) Dvl-3 PDZ: ITC one-site fit
T1 construct: spectra of Dvl-3 PDZ in the absence and presence of the compound; His-tag (cleaved yes); made in house
T1 sequence (Q92997 243-336): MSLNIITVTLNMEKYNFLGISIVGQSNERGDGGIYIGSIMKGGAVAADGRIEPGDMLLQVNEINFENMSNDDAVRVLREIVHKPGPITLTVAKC
Protocol: (§1) Isothermal titration calorimetry (ITC) experiments were performed using a VP-ITC system (MicroCal). Protein in 20 mM HEPES buffer and 50 mM NaCl (pH 7.4) was centrifuged and degassed before the experiment. A 200 µM ligand solution containing 2 % DMSO was injected 30 times in 10 µL aliquots at 120 s intervals with a stirring speed of 1000 rpm into a 1.4 mL sample cell containing the Dvl PDZ domain at a concentration of 20 µM at 25 ^∘ C. Control experiment was initially determined by titrating ligand into buffer at the same conditions. […] Thermodynamic properties and binding constants were determined by fitting the data with a non-linear least-squares routine using a single-site binding model with Origin (OriginLab) for ITC v.7.2 (MicroCal).

[2] = target: T2, Dvl-1 PDZ (Homo sapiens, UniProt O14640, C338S/V250I); conditions: ITC
T2 sequence (O14640 245-338 V250I/C338S): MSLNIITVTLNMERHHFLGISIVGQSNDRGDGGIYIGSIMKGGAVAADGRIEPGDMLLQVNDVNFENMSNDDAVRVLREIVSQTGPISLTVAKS
Protocol: as §1

Structure (SMILES): CS(=O)(=O)Nc1ccc(F)cc1C(=O)O [Compound 6]
binding to Dvl-3 PDZ (in words) ([1]; ITC): millimolar (mM) range
Kd [1]: > 1000 µM

Structure (SMILES): O=C(O)c1cc(Br)ccc1NS(=O)(=O)c1ccc2ccccc2c1 [Compound 11, 5-Bromo-2-(naphthalene-2-sulfonamido) benzoic acid]
Kd [1]: 13.8 µM

Structure (SMILES): O=C(O)c1cc(Br)ccc1NS(=O)(=O)Cc1ccccc1 [Compound 12, 5-Bromo-2-(phenylmethylsulfonamido)benzoic acid]
Kd [1]: 58.5 µM

Structure (SMILES): O=C(O)c1cc(Br)ccc1NS(=O)(=O)c1ccc(COc2ccccc2)cc1 [Compound 13, 5-Bromo-2-(4-(phenoxymethyl)phenylsulfonamido)benzoic acid]
Kd [1]: 7.2 µM

Structure (SMILES): Cc1cc(C)c(S(=O)(=O)Nc2ccc(Br)cc2C(=O)O)c(C)c1 [Compound 14, 5-Bromo-2-(2,4,6-trimethylphenylsulfoamido)benzoic acid]
Kd [1]: 58.1 ± 2.1 µM

Structure (SMILES): CC(=O)c1ccc(S(=O)(=O)Nc2ccc(C(F)(F)F)cc2C(=O)O)cc1 [Compound 15, 2-(4-Acetylphenylsulfoamido)-5-(trifluoromethyl)benzoic acid]
Kd [1]: 52.9 ± 1.7 µM

Second part, the molecule after the results:

Kd [1]: 59.1 ± 1.5 µM
Structure (SMILES): O=C(O)c1cc(C(F)(F)F)ccc1NS(=O)(=O)c1ccc2c(c1)OCCO2 [Compound 16, 2-(2,3-Dihydrobenzo[b][1,4]dioxine-6-sulfonamido)-5-(trifluoromethyl)benzoic acid]

Kd [1]: 49.5 µM
Structure (SMILES): Cc1cc(C)c(S(=O)(=O)Nc2ccc(C(F)(F)F)cc2C(=O)O)c(C)c1 [Compound 17, 5-(Trifluoromethyl)-2-(2,4,6-trimethylphenylsulfoamido)benzoic acid]

T Δ S Dvl-3 PDZ ([1]; ITC): 0.4 kcal mol ^-1
Δ H Dvl-3 PDZ ([1]; ITC): -5.9 kcal mol ^-1
Kd [1]: 21.8 µM and 21 µM
T Δ S Dvl-1 PDZ [2]: -0.3 kcal mol ^-1
Δ G Dvl-1 PDZ [2]: -7.0 kcal mol ^-1
Δ H Dvl-1 PDZ [2]: -7.3 kcal mol ^-1
Structure (SMILES): Cc1ccc(NS(=O)(=O)c2ccc(CNC(=O)c3c[nH]c4ccccc34)c(Cl)c2)c(C(=O)O)c1 [Compound 19]

n (stoichiometry) Dvl-3 PDZ [1]: 0.90 ± 0.08
-tΔS Dvl-3 PDZ ([1]; ITC, Fig. S7): -2.8 kcal/mol
Δ G Dvl-3 PDZ ([1]; ITC, Fig. S7): -5.5 kcal/mol
Δ H Dvl-3 PDZ ([1]; ITC, Fig. S7): -2.7 ± 1.2 kcal/mol
Kd [1]: 79.7 ± 53.3 µM
Structure (SMILES): O=C(O)c1cccc(S(=O)(=O)Nc2cccc(S(=O)(=O)Nc3ccccc3C(=O)O)c2)c1 [NPL-1011, 3-( {3-[(2-carboxyphenyl)sulfamoyl]phenyl}sulfamoyl)benzoic acid, reference compound]

binding to Dvl-3 PDZ (in words) ([1]; ITC): did not show high-affinity binding
Kd [1]: > 400 µM
Structure (SMILES): CC(C)[C@H](OC(=O)[C@H](C)NC(=O)[C@@H](OC(=O)[C@H](C)NC(=O)OC(C)(C)C)C(C)C)C(=O)O [NSC668036, reference compound]

n (stoichiometry) Dvl-3 PDZ [1]: 0.97 ±0.14
-tΔS Dvl-3 PDZ ([1]; ITC, Fig. S7): 24.9 kcal/mol
Δ H Dvl-3 PDZ ([1]; ITC, Fig. S7): -31.9 kcal/mol
Structure (SMILES): CC1=C(CC(=O)O)c2cc(F)ccc2/C1=C\c1ccc([S+](C)[O-])cc1 (stereo not shown) [Sulindac, reference compound]
